Assay results as given in article PMC6349357, “Computational and experimental analysis of bioactive peptide linear motifs in the integrin adhesome” (PLoS ONE, 2019).

What was measured:
resting platelets = assay: Platelet aggregation induced by peptide in resting washed platelets (activation); format: cell-based, human (healthy volunteers); conditions: for Activation, 5μM / Activation, 20μM: S3 Table, n=3; for Activation, 5μM: peptide 5 μM; for Activation, 5μM / Activation, 20μM / Activation, donor 14 06 13 / Activation, donor 20 08 13 / Activation: unit assumed; for Activation, 20μM: peptide 20 μM; for Activation, donor 14 06 13: replicate 14_06_13; for Activation, donor 14 06 13 / Activation, donor 18_06_13 / Activation, donor 20_06_13 / Activation, donor 20 08 13 / Activation, donor 22_08_13_DONOR1 / Activation, donor 22_08_13_DONOR2: SDC4 peptides and controls, 20 μM; for Activation, donor 18_06_13: replicate 18_06_13; for Activation, donor 18_06_13 / Activation, donor 20_06_13: in % (unit assumed); for Activation, donor 20_06_13: replicate 20_06_13; for Activation, donor 20 08 13: replicate 20_08_13; for Activation, donor 22_08_13_DONOR1: replicate 22_08_13_DONOR1; for Activation, donor 22_08_13_DONOR2: replicate 22_08_13_DONOR2; for Activation: platelet aggregation in resting platelets after 6 minutes incubation with peptide, pal-peptides 20 μM, tat-peptides 50 μM, optical density, aggregometer, mean, n>=3; for Aggregation before TRAP activation, donor h: replicate donor h; for Aggregation before TRAP activation, donor h / Aggregation before TRAP activation, donor i / Aggregation before TRAP activation, donor j: pal 20 μM, tat 50 μM; for Aggregation before TRAP activation, donor i: replicate donor i; for Aggregation before TRAP activation, donor j: replicate donor j
Protocol: (§1) Blood was drawn from healthy volunteers into a syringe containing a final volume of 15% Acid Citrate Dextrose (ACD). The blood/ACD mixture was then aliquoted into 15 ml Cellstar tubes, at volumes of 5ml per tube, and centrifuged at 150 rcf for 10 minutes to obtain platelet rich plasma (PRP). PRP was then transferred to a 50ml tube using a pipette. The pH was then adjusted to 6.5. Prostaglandin (PGE1) was then added with a final concentration of 1μM. The PRP was then centrifuged at 750 rcf. After centrifugation the platelet poor plasma (PPP) was discarded and the pellet was resuspended in buffer A (6 mM dextrose, 130 mM NaCl, 9 mM NaHCO3, 10 mM sodium citrate, 10 mM Tris base, 3 mM KCl, 0.81 mM KH2PO4 and 0.9 mM MgCl26H2O, pH 7.4). A platelet concentration of 3x10^5/μl or 1x10^6/μl was obtained by dilution depending on the experiment in which they were used. Platelets were left to rest for 45 minutes and supplemented with 1.8mM calcium chloride prior to use.
(§2) A platelet concentration of 3x10^5 /μl was used when performing standard aggregations and a concentration of 1x10^6 /μl was used for sample preparation for western blot analysis. The extent of platelet aggregation was measured by quantifying the optical density of the samples using the Bio-Data PAP-8 aggregometer (platelet aggregation profiler, Horsham, PA, USA). A temperature of 37°C was maintained and samples were stirred using magnets spinning at 1100 rpm. 200 μl of washed platelets was added to each aggregation tube. Different volumes of buffer, peptide and TRAP were added to achieve the desired concentrations. Peptide/buffer was added to each well after two minutes. TRAP, with a final concentration depending on the experiment, was added 6 minutes later and data was collected for an additional 7 minutes.

TRAP-activated platelets = assay: Inhibition of TRAP-induced platelet aggregation after pre-incubation with peptide; format: cell-based, human (healthy volunteers); conditions: for Aggregation (inhibition effects of syndecan-derived peptides): S2 Table A, n=6; for Inhibition, donor 14_06_13: replicate 14_06_13; for Inhibition, donor 18_06_13: replicate 18_06_13; for Inhibition, donor 20_06_13: replicate 20_06_13; for Inhibition, donor 20_08_13: replicate 20_08_13; for Aggregation after TRAP activation, donor h: replicate donor h; for Aggregation after TRAP activation, donor h / Aggregation after TRAP activation, donor i / Aggregation after TRAP activation, donor j: pal 20 μM, tat 50 μM; for Aggregation after TRAP activation, donor i: replicate donor i; for Aggregation after TRAP activation, donor j: replicate donor j
Protocol: as §1, §2

[1] = S3 Table, peptide 5 μM, aggregation after TRAP, n=3
[2] = S3 Table, peptide 20 μM, aggregation after TRAP, n=3
[3] = replicate 22_08_13_DONOR1, peptide 20 μM, TRAP 4 μM
[4] = replicate 22_08_13_DONOR2, peptide 20 μM, TRAP 4 μM
[5] = platelet aggregation induced by 4 μM TRAP in platelets pre-incubated with peptide (low value = inhibition), pal-peptides 20 μM, tat-peptides 50 μM, mean, n>=3

Pal-RMKKKDEGSYD-APTNEFYA [pal-SDC4-JM U SDC4-tail, palmitylated chimeric peptide of SDC4 juxtamembrane and tail regions]
Activation, 5μM (resting platelets): 2%
Activation, 20μM (resting platelets): 2%
Activation, donor 14 06 13 (resting platelets): 3%
Activation, donor 18_06_13 (resting platelets): 2
Activation, donor 20_06_13 (resting platelets): 2
Activation, donor 20 08 13 (resting platelets): 3%
Activation, donor 22_08_13_DONOR1 (resting platelets): 1
Activation, donor 22_08_13_DONOR2 (resting platelets): 2
Aggregation (inhibition effects of syndecan-derived peptides) (TRAP-activated platelets; peptide 20 μM, TRAP 4 μM, mean): 69
Platelet aggregation remaining after TRAP (low = inhibition) (TRAP-activated platelets; [1]): 63
Platelet aggregation remaining after TRAP (low = inhibition) (TRAP-activated platelets; [2]): 69
Inhibition, donor 14_06_13 (TRAP-activated platelets; peptide 20 μM, TRAP 4 μM): 75
Inhibition, donor 18_06_13 (TRAP-activated platelets; peptide 20 μM, TRAP 4 μM): 62
Inhibition, donor 20_06_13 (TRAP-activated platelets; peptide 20 μM, TRAP 4 μM): 81
Inhibition, donor 20_08_13 (TRAP-activated platelets; peptide 20 μM, TRAP 4 μM): 70
Platelet aggregation remaining after TRAP (low = inhibition) (TRAP-activated platelets; [3]): 62
Platelet aggregation remaining after TRAP (low = inhibition) (TRAP-activated platelets; [4]): 68

Pal-RMKKKDEGSYD-LGKKPIYKK [pal-SDC4-JM U SDC4-middle, palmitylated chimeric peptide of SDC4 juxtamembrane and middle regions]
Activation, 5μM (resting platelets): 2%
Activation, 20μM (resting platelets): 4%
Activation, donor 14 06 13 (resting platelets): 0%
Activation, donor 18_06_13 (resting platelets): 2
Activation, donor 20_06_13 (resting platelets): 1
Activation, donor 20 08 13 (resting platelets): 6%
Activation, donor 22_08_13_DONOR1 (resting platelets): 6
Activation, donor 22_08_13_DONOR2 (resting platelets): 7
Aggregation (inhibition effects of syndecan-derived peptides) (TRAP-activated platelets; peptide 20 μM, TRAP 4 μM, mean): 19
Platelet aggregation remaining after TRAP (low = inhibition) (TRAP-activated platelets; [1]): 61
Platelet aggregation remaining after TRAP (low = inhibition) (TRAP-activated platelets; [2]): 19
Inhibition, donor 14_06_13 (TRAP-activated platelets; peptide 20 μM, TRAP 4 μM): 26
Inhibition, donor 18_06_13 (TRAP-activated platelets; peptide 20 μM, TRAP 4 μM): 9
Inhibition, donor 20_06_13 (TRAP-activated platelets; peptide 20 μM, TRAP 4 μM): 47
Inhibition, donor 20_08_13 (TRAP-activated platelets; peptide 20 μM, TRAP 4 μM): 12
Platelet aggregation remaining after TRAP (low = inhibition) (TRAP-activated platelets; [3]): 8
Platelet aggregation remaining after TRAP (low = inhibition) (TRAP-activated platelets; [4]): 14

SSTLSKKRPPPPPPGHKRTLSD-tat-(NH2) [AMAP1-tat, ASAP1/DDEF2 peptide with C-terminal tat]
Activation (resting platelets): 4%
Aggregation before TRAP activation, donor h (resting platelets): 4
Aggregation before TRAP activation, donor i (resting platelets): 3
Aggregation before TRAP activation, donor j (resting platelets): 5
Platelet aggregation remaining after TRAP (low = inhibition) (TRAP-activated platelets; [5]): 72
Aggregation after TRAP activation, donor h (TRAP-activated platelets; TRAP 4 μM): 76
Aggregation after TRAP activation, donor i (TRAP-activated platelets; TRAP 4 μM): 62
Aggregation after TRAP activation, donor j (TRAP-activated platelets; TRAP 4 μM): 79

YKDSMERDKGK [pal-SDC4_JM Control 1, scrambled control of pal-SDC4_JM, reference compound]
Effects on activation of aggregation at 1, 5 and 20 μM (resting platelets; S2 Fig A legend, three doses 1, 5, 20 μM): activatory effects
Activation, donor 14 06 13 (resting platelets): 69%
Activation, donor 18_06_13 (resting platelets): 68
Activation, donor 20_06_13 (resting platelets): 66
Activation, donor 20 08 13 (resting platelets): 70%
Activation, donor 22_08_13_DONOR1 (resting platelets): 71
Activation, donor 22_08_13_DONOR2 (resting platelets): 65
Summary of effects of SDC4-derived palmitylated peptides and scrambled controls, 20μM (TRAP-activated platelets; S2 Table B / S2 Fig, 20 μM, activation of resting platelets and inhibition of aggregation induced by 4 μM TRAP, in words): Activator
Inhibition, donor 14_06_13 (TRAP-activated platelets; peptide 20 μM, TRAP 4 μM): 76
Inhibition, donor 18_06_13 (TRAP-activated platelets; peptide 20 μM, TRAP 4 μM): 72
Inhibition, donor 20_06_13 (TRAP-activated platelets; peptide 20 μM, TRAP 4 μM): 71
Inhibition, donor 20_08_13 (TRAP-activated platelets; peptide 20 μM, TRAP 4 μM): 71
Platelet aggregation remaining after TRAP (low = inhibition) (TRAP-activated platelets; [3]): 68
Platelet aggregation remaining after TRAP (low = inhibition) (TRAP-activated platelets; [4]): 70

pal-FAKFEEERAR-(NH2) [pal-ITGB3_middle1, N-terminally palmitylated ITGB3 peptide …]
Activation, 5μM (resting platelets): 2%
Activation, 20μM (resting platelets): 2%
Activation (resting platelets): 0%
Aggregation before TRAP activation, donor h (resting platelets): 1
Aggregation before TRAP activation, donor i (resting platelets): 1
Aggregation before TRAP activation, donor j (resting platelets): 0
Platelet aggregation remaining after TRAP (low = inhibition) (TRAP-activated platelets; [1]): 73
Platelet aggregation remaining after TRAP (low = inhibition) (TRAP-activated platelets; [2]): 68
Aggregation after TRAP, peptide alone 1x (A 1x / B 1x) (TRAP-activated platelets; TRAP 2 μM after 6 minutes pre-incubation, 4 μM pal-peptides, 10 μM tat-peptides, mean n = 3): 67.67
Aggregation after TRAP, peptide alone 2x (A 2x / B 2x) (TRAP-activated platelets; TRAP 2 μM after 6 minutes pre-incubation, double concentration of 4 μM (pal) / 10 μM (tat), mean n = 3): 43.67
Platelet aggregation remaining after TRAP (low = inhibition) (TRAP-activated platelets; [5]): 45
Aggregation after TRAP activation, donor h (TRAP-activated platelets; TRAP 4 μM): 64
Aggregation after TRAP activation, donor i (TRAP-activated platelets; TRAP 4 μM): 60
Aggregation after TRAP activation, donor j (TRAP-activated platelets; TRAP 4 μM): 12

pal-KVGAAKR [pal-ITGA2bJM2]
Activation, 5μM (resting platelets): 1%
Activation, 20μM (resting platelets): 1%
Platelet aggregation remaining after TRAP (low = inhibition) (TRAP-activated platelets; [1]): 28
Platelet aggregation remaining after TRAP (low = inhibition) (TRAP-activated platelets; [2]): 3

pal-KVGAAKR-FAKFEEERAR [B14p ITGA2b-JM2 U ITGB3-middle1, palmitylated chimeric peptide]
Activation, 5μM (resting platelets): 2%
Activation, 20μM (resting platelets): 0%
Platelet aggregation remaining after TRAP (low = inhibition) (TRAP-activated platelets; [1]): 71
Platelet aggregation remaining after TRAP (low = inhibition) (TRAP-activated platelets; [2]): 3

pal-KVGAAKR-LGKKPIYKK [B19p ITGA2b-JM2 U SDC4-middle, palmitylated chimeric peptide]
Activation, 5μM (resting platelets): 2%
Activation, 20μM (resting platelets): 3%
Platelet aggregation remaining after TRAP (low = inhibition) (TRAP-activated platelets; [1]): 66
Platelet aggregation remaining after TRAP (low = inhibition) (TRAP-activated platelets; [2]): 6

pal-KVGAAKR-RMKKKDEGSYD [B16p ITGA2b-JM U SDC4-JM, palmitylated chimeric peptide]
Activation, 5μM (resting platelets): 3%
Activation, 20μM (resting platelets): 0%
Platelet aggregation remaining after TRAP (low = inhibition) (TRAP-activated platelets; [1]): 72
Platelet aggregation remaining after TRAP (low = inhibition) (TRAP-activated platelets; [2]): 4

pal-KVGAAKR-TLELDRLMASLS [B21p ITGA2b-JM2 U TGFB1I1-LD, palmitylated chimeric peptide]
Activation, 5μM (resting platelets): 2%
Activation, 20μM (resting platelets): 1%
Platelet aggregation remaining after TRAP (low = inhibition) (TRAP-activated platelets; [1]): 70
Platelet aggregation remaining after TRAP (low = inhibition) (TRAP-activated platelets; [2]): 28

pal-KVGAAKR-WEQLLTTIARTINEVENQI [B13p ITGA2b-JM2 U ACTN1-VBS, palmitylated chimeric peptide]
Activation, 5μM (resting platelets): 3%
Activation, 20μM (resting platelets): 12%
Platelet aggregation remaining after TRAP (low = inhibition) (TRAP-activated platelets; [1]): 75
Platelet aggregation remaining after TRAP (low = inhibition) (TRAP-activated platelets; [2]): 63

pal-KVGFFKR-FAKFEEERAR [B15p ITGA2b-JM U ITGB3-middle1, palmitylated chimeric peptide]
Activation, 5μM (resting platelets): 2%
Activation, 20μM (resting platelets): 4%
Platelet aggregation remaining after TRAP (low = inhibition) (TRAP-activated platelets; [1]): 72
Platelet aggregation remaining after TRAP (low = inhibition) (TRAP-activated platelets; [2]): 71

pal-KVGFFKR-LGKKPIYKK [B18p ITGA2b-JM U SDC4-middle, palmitylated chimeric peptide]
Activation, 5μM (resting platelets): 61%
Activation, 20μM (resting platelets): 13%
Platelet aggregation remaining after TRAP (low = inhibition) (TRAP-activated platelets; [1]): 65
Platelet aggregation remaining after TRAP (low = inhibition) (TRAP-activated platelets; [2]): 27
